In patent US9175036B2, “Antimicrobial water treatment membranes and production thereof” (BEN-GURION UNVERSITY OF THE NEGEV RESEARCH AND DEVELOPMENT …, priority 2009, dated 2015):
In brackets after ≈: the same amount, converted by molar mass. Square brackets hold non-standard residues; d marks the D form. Peptide text beside a SMILES is read from it. Ahx = NCCCCCC(=O)O

tested on: Enterobacter; type: cell-based; conditions: not given
Protocol: The IC50 is determined by an essay, suitable for the specific film-forming microorganism in question. For example, in the present invention, the Enterobacter assay, which is described in detail in the methods section below, was used to determine the antimicrobial activities of the tested peptides.
Quantitative Biofilm Growth Inhibition Assay in a 96-Wells Microtiter Plate:
Enterobacter culture (50 ml) was grown in tryptic soy broth media (TBS; prepared according to manufacturer instructions) overnight at 25° C. On the next day the turbidity of the culture was measured at 600 nm (Biomate 5 UV-Vis spectrophotometer, Thermo Fisher Scientific, Waltham, Mass.) and, if necessary, TSB was added to dilute the culture until the OD was 1.
Then 96 wells polystyrene microtiter plates (flat bottom, transparent, Becton Dickinson, Franklin Lakes, New-Jersey) were filled as following: Negative control wells (without bacteria) were filled with 125 μl TSB media and 25 μl of DDW:PBS1:1 buffer solution; Positive control wells (without peptide solution) were filled with 110 μl TSB media, 25 μl of DDW:PBS1:1 buffer solution and 15 μl of Enterobacter culture solution; Wells that contained AMPs at different concentrations were filled with 110 μl TSB media, 25 μl of peptide solution and 15 μl of Enterobacter culture solution.
The plates were incubated at 25° C. overnight. On the next day the plates were gently rinsed 5 times with distilled water to remove the planktonic bacteria and then dried at room temperature for 10 minutes. Then the biofilm on the walls of the wells was dyed by adding 200 μl, of 3% crystal violet (CV) to the wells. After 15 minutes at room temperature, the plates were gently rinsed 5 times with distilled water to remove excess dye and dried at room temperature for 10 minutes (Djordjevic, Wiedmann & McLandsborough 2002). The dry plates were filled with 200 μl ethanol, covered and gently agitated (Duomax 1030 rocking platform shaker, Heidolph, Kelheim, Germany) for 1 hour. The absorbance of extracted color was measured in a plate reading spectrophotometer (Infinite M200, Tecan, Mannedorf, Switzerland) at 595 nm.
The effect of linking the arm to a peptide, on the antimicrobial activity of the peptides was assessed by measuring the peptide activity in 96-microtitter plates in solution and comparing to activities of the normal peptides. Experiments were performed in water and in 3% NaCl solution. Table 6 presents the antimicrobial activity (IC50) of peptide-arm systems, in water and in 3% NaCl solution. Values were extracted from dose-response curves.
Different concentration solutions of peptides, bought or prepared as detailed in the methods section above, were prepared by diluting a stock solution with 1% ACN. Stock solution was prepared by dissolving water soluble peptides in DDW:PBS1:1. PBS (pH=7.4) was prepared by adding to 800 ml DDW, 8 grams NaCl, 0.2 grams KCl, 1.44 grams Na2HPO4 and 0.2 grams KH2PO4.
To evaluate whether attachment of a tether to the AMPs has an effect on the inhibitory potency, a PEGylated peptide (HS-PEG-D-Modelin-1) was prepared, and its inhibitory potency compared to that of the ‘normal’ peptide All-D-Modelin-1. Peptides were diluted in 2-fold serial dilutions, and the antibacterial activity of the peptides was determined in sterile 96-multititter plates.

Row | SMILES | IC50 Normal conditions [µg/mL] | IC50 in 3% Aqueous NaCl [µg/mL]
1 | CC(C)C[C@H](NC(=O)[C@H](CCCCN)NC(=O)CCCCCNC(=O)[C@@H](N)CS)C(=O)N[C@@H](Cc1c[nH]c2ccccc12)C(=O)N[C@@H](CCCCN)C(=O)N[C@@H](CCCCN)C(=O)N[C@@H](Cc1c[nH]c2ccccc12)C(=O)N[C@@H](C)C(=O)N[C@@H](CCCCN)C(=O)N[C@@H](CCCCN)C(=O)N[C@@H](Cc1c[nH]c2ccccc12)C(=O)N[C@@H](CC(C)C)C(=O)N[C@@H](CCCCN)C(=O)N[C@@H](CC(C)C)C(=O)N[C@@H](Cc1c[nH]c2ccccc12)C(=O)N[C@@H](CCCCN)C(=O)N[C@@H](C)C(=O)N[C@@H](Cc1c[nH]c2ccccc12)C(=O)O [CX-Modelin-1, CXKLWKKWAKKWLKLWKAW] (H-C[Ahx]KLWKKWAKKWLKLWKAW-OH; N-terminus assumed) | 60 (≈ 23.6 µM) | 
2 | CC(C)C[C@H](NC(=O)[C@H](CCCCN)NC(=O)CNC(=O)CNC(=O)CNC(=O)CN)C(=O)N[C@@H](Cc1c[nH]c2ccccc12)C(=O)N[C@@H](CCCCN)C(=O)N[C@@H](CCCCN)C(=O)N[C@@H](Cc1c[nH]c2ccccc12)C(=O)N[C@@H](C)C(=O)N[C@@H](CCCCN)C(=O)N[C@@H](CCCCN)C(=O)N[C@@H](Cc1c[nH]c2ccccc12)C(=O)N[C@@H](CC(C)C)C(=O)N[C@@H](CCCCN)C(=O)N[C@@H](CC(C)C)C(=O)N[C@@H](Cc1c[nH]c2ccccc12)C(=O)N[C@@H](CCCCN)C(=O)N[C@@H](C)C(=O)N[C@@H](Cc1c[nH]c2ccccc12)C(=O)O [Peptide G4-Modelin-1] (H-GGGGKLWKKWAKKWLKLWKAW-OH; N-terminus and C-terminus assumed) | 70 (≈ 27.4 µM) | 120 (≈ 46.9 µM)
3 | CC(C)C[C@H](NC(=O)[C@H](CCCCN)NC(=O)[C@H](Cc1ccccc1)NC(=O)[C@H](CC(C)C)NC(=O)[C@H](CC(C)C)NC(=O)CNC(=O)[C@H](CCCCN)NC(=O)[C@H](CC(C)C)NC(=O)[C@H](CCCCN)NC(=O)[C@@H]1CCCN1C(=O)[C@H](CC(C)C)NC(=O)[C@H](CC(C)C)NC(=O)[C@H](CC(C)C)NC(=O)[C@H](CCCCN)NC(=O)[C@H](CC(C)C)NC(=O)[C@H](CC(C)C)NC(=O)[C@H](CCCCN)NC(=O)[C@H](Cc1ccc(O)cc1)NC(=O)CNC(=O)CNC(=O)CNC(=O)CNC(=O)[C@@H](N)CS)C(N)=O [CG4-L^6P^9G^13F^16] (H-CGGGGYKLLKLLLPKLKGLLFKL-NH2; N-terminus assumed) | 110 (≈ 44.5 µM) | >300
4 | N=C(N)NCCC[C@H](NC(=O)CCCCCNC(=O)[C@@H](N)CS)C(=O)N[C@@H](CCCNC(=N)N)C(=O)N[C@@H](Cc1c[nH]c2ccccc12)C(=O)N[C@@H](Cc1c[nH]c2ccccc12)C(=O)N[C@@H](CCCNC(=N)N)C(=O)N[C@@H](Cc1ccccc1)C(N)=O [CX-Hexapeptide-4, CXRRWWRF-NH2] (H-C[Ahx]RRWWRF-NH2; N-terminus assumed) | 80 (≈ 65.5 µM) | >300
5 | CC(C)C[C@H](NC(=O)[C@H](CCCCN)NC(=O)[C@H](Cc1ccccc1)NC(=O)[C@H](CC(C)C)NC(=O)[C@H](CC(C)C)NC(=O)CNC(=O)[C@H](CCCCN)NC(=O)[C@H](CC(C)C)NC(=O)[C@H](CCCCN)NC(=O)[C@@H]1CCCN1C(=O)[C@H](CC(C)C)NC(=O)[C@H](CC(C)C)NC(=O)[C@H](CC(C)C)NC(=O)[C@H](CCCCN)NC(=O)[C@H](CC(C)C)NC(=O)[C@H](CC(C)C)NC(=O)[C@H](CCCCN)NC(=O)[C@@H](N)Cc1ccc(O)cc1)C(N)=O [L^6P^9G^13F^16, reference compound] (H-YKLLKLLLPKLKGLLFKL-NH2; N-terminus and C-terminus assumed) | 40 (≈ 18.7 µM) | 300 (≈ 140 µM)
6 | N=C(N)NCCC[C@H](NC(=O)[C@H](Cc1c[nH]c2ccccc12)NC(=O)[C@H](Cc1c[nH]c2ccccc12)NC(=O)[C@H](CCCNC(=N)N)NC(=O)[C@@H](N)CCCNC(=N)N)C(=O)N[C@@H](Cc1ccccc1)C(N)=O [Hexapeptide-4, RRWWRF-NH2, reference compound] (H-RRWWRF-NH2; N-terminus assumed) | 60 (≈ 59.7 µM) | 100 (≈ 99.5 µM)

same assay, conditions: peptide in solution, 3% NaCl solution, 96-microtitter plates; values extracted from dose-response curves

Row | SMILES | IC50 in 3% Aqueous NaCl [µg/mL]
7 | CC(C)C[C@H](NC(=O)[C@H](CCCCN)NC(=O)[C@H](CC(C)C)NC(=O)[C@H](Cc1c[nH]c2ccccc12)NC(=O)[C@H](CCCCN)NC(=O)[C@H](CCCCN)NC(=O)[C@H](C)NC(=O)[C@H](Cc1c[nH]c2ccccc12)NC(=O)[C@H](CCCCN)NC(=O)[C@H](CCCCN)NC(=O)[C@H](Cc1c[nH]c2ccccc12)NC(=O)[C@H](CC(C)C)NC(=O)[C@@H](N)CCCCN)C(=O)N[C@@H](Cc1c[nH]c2ccccc12)C(=O)N[C@@H](CCCCN)C(=O)N[C@@H](C)C(=O)N[C@@H](Cc1c[nH]c2ccccc12)C(=O)O [Modelin-1, KLWKKWAKKWLKLWKAW, reference compound] | 100 (≈ 43 µM)

same assay, conditions: peptide in solution, water, 96-microtitter plates; values extracted from dose-response curves

Row | SMILES | IC50 Normal conditions [µg/mL]
8 | CC[C@H](C)[C@H](NC(=O)[C@H](CCCNC(=N)N)NC(=O)CNC(=O)[C@H](CC(C)C)NC(=O)[C@H](Cc1ccccc1)NC(=O)[C@H](CCCCN)NC(=O)[C@H](CO)NC(=O)[C@H](Cc1ccccc1)NC(=O)[C@H](Cc1c[nH]c2ccccc12)NC(=O)[C@H](CCC(N)=O)NC(=O)[C@@H](NC(=O)[C@H](Cc1ccccc1)NC(=O)CCCCCNC(=O)[C@@H](N)CS)C(C)C)C(=O)N[C@@H](CC(C)C)C(N)=O [CX-Temporin-L, CXFVQWFSKFLGRIL-NH2] (H-C[Ahx]FVQWFSKFLGRIL-NH2) | >300
9 | CC(C)C[C@H](NC(=O)[C@H](CCCCN)NC(=O)[C@H](CC(C)C)NC(=O)[C@H](Cc1c[nH]c2ccccc12)NC(=O)[C@H](CCCCN)NC(=O)[C@H](CCCCN)NC(=O)[C@H](C)NC(=O)[C@H](Cc1c[nH]c2ccccc12)NC(=O)[C@H](CCCCN)NC(=O)[C@H](CCCCN)NC(=O)[C@H](Cc1c[nH]c2ccccc12)NC(=O)[C@H](CC(C)C)NC(=O)[C@@H](N)CCCCN)C(=O)N[C@@H](Cc1c[nH]c2ccccc12)C(=O)N[C@@H](CCCCN)C(=O)N[C@@H](C)C(=O)N[C@@H](Cc1c[nH]c2ccccc12)C(=O)O [Modelin-1, KLWKKWAKKWLKLWKAW, reference compound] | 20 (≈ 8.59 µM)

same assay, conditions: repeated assay; D-Modelin-1 (crude) and HS-PEG-D-Modelin-1 prepared in the same synthesis

Row | SMILES | IC50 [µg/mL]
10 | CC(C)C[C@@H](NC(=O)[C@H](N)CCCCN)C(=O)N[C@H](Cc1c[nH]c2ccccc12)C(=O)N[C@H](CCCCN)C(=O)N[C@H](CCCCN)C(=O)N[C@H](Cc1c[nH]c2ccccc12)C(=O)N[C@H](C)C(=O)N[C@H](CCCCN)C(=O)N[C@H](CCCCN)C(=O)N[C@H](Cc1c[nH]c2ccccc12)C(=O)N[C@H](CC(C)C)C(=O)N[C@H](CCCCN)C(=O)N[C@H](CC(C)C)C(=O)N[C@H](Cc1c[nH]c2ccccc12)C(=O)N[C@H](CCCCN)C(=O)N[C@H](C)C(=O)N[C@H](Cc1c[nH]c2ccccc12)C(=O)O [D-Modelin-1, KLWKKWAKKWLKLWKAW] | 3 (≈ 1.29 µM)
